Measured values: US10189854B2, “Substituted pyrimidine compounds” (Grünenthal GmbH, priority 2014, dated 2019)
Counter-ions that a name gives are not always drawn.

The molecules below were run against human PDE4B1 (Homo sapiens (Human), UniProt Q07343) (assay: TR-FRET assay using the LANCE Ultra cAMP kit to determine the activity of hPDE4B1). Conditions: IC50 inhibition of PDE4B, mean.
Format: biochemical
Method in brief: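 Recombinant human PDE4B1 (Sf9-expressed, 0.96 U) incubated with compound and 500 nM cAMP in 50 mM Tris-HCl, 50 mM MgCl2, 5 mM DTT, pH 8.5, 30 min at room temperature. Residual cAMP read by TR-FRET (665/620 nm ratio) after IBMX stop. IC50 from ten-concentration curves as % inhibition of control.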

Sequence of human PDE4B1 (Q07343 whole entry): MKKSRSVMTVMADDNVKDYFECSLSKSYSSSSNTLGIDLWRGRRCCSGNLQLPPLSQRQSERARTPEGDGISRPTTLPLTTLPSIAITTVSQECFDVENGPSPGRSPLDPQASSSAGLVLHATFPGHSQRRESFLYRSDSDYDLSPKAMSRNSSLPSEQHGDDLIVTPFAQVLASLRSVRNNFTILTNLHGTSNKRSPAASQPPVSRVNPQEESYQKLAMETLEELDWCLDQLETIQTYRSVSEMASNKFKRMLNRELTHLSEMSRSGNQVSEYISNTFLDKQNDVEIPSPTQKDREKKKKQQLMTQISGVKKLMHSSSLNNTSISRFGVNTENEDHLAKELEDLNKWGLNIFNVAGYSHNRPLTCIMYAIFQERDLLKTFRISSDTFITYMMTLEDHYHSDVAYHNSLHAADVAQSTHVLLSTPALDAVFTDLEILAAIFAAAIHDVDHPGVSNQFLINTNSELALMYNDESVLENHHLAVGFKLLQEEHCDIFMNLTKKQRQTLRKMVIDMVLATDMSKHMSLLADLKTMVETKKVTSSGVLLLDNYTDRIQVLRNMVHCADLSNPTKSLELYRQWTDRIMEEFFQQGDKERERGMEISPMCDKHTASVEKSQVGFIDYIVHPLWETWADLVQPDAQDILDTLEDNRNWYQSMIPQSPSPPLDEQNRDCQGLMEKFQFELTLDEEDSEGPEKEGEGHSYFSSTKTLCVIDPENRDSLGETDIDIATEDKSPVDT

Row | Structure (SMILES) | IC50 [µM]
1 | CC(=O)Nc1ccnc(-c2cnc(N3CC4(CC4)c4ccc(C(=O)N5CC6CC5CN6)cc43)nc2)c1 (stereo not shown) [Compound 279, N-(2-(2-(6′-(2,5-diazabicyclo[2.2.1]heptane-2-carbonyl)spiro[cyclopropane-1,3′-indolin]-1′-yl)pyrimidin-5-yl)pyridin-4-yl)acetamide.HCl] | < 0.1
2 | CN(CCO)C(=O)c1ccc2c(c1)N(c1ncc(-c3cccc(O)n3)cn1)CC21CC1 [Compound 280, N-(2-Hydroxy-ethyl)-1-[5-(6-hydroxy-pyridin-2-yl)-pyrimidin-2-yl]-N-methyl-spiro[1,2-dihydro-indole-3,1′-cyclopropane]-6-carboxylic acid amide] | < 0.1
3 | CN(CCO)C(=O)c1ccc2c(c1)N(c1ncc(-c3cccc([S+](C)[O-])c3)cn1)CC21CC1 (stereo not shown) [Compound 281, N-(2-Hydorxy-ethyl)-N-methyl-1-[5-[3-(methylsulfinyl)-phenyl]pyrimidin-2-yl]-spiro[1,2-dihydro-indole-3,1′-cyclopropane]-6-carboxylic acid amide] | < 0.1
4 | COc1cc(C)nc(-c2cnc(N3CC4(CC4)c4ccc(C(=O)N(C)CCO)cc43)nc2)c1 [Compound 282, N-(2-Hydroxy-ethyl)-1-[5-(4-methoxy--methyl-pyridin-2-yl)-pyrimidin-2-yl]-N-methyl-spiro[1,2-dihydro-indole-3,1′-cyclopropane]-6-carboxylic acid amide] | < 0.1
5 | C[C@@H](O)CN(C)C(=O)c1ccc2c(c1)N(c1ncc(-c3ccccc3F)cn1)CC21CC1 [Compound 283, 1-[5-(2-Fluorophenyl)-pyrimidin-2-yl)-N-[(2R)-2-hydroxy-propyl]-N-methyl-spiro[1,2-dihydro-indole-3,1′-cyclopropane]-6-carboxylic acid amide] | < 0.1
6 | C[C@H](O)CN(C)C(=O)c1ccc2c(c1)N(c1ncc(-c3ccccc3F)cn1)CC21CC1 [Compound 284, 1-[5-(2-Fluorophenyl)-pyrimidin-2-yl]-N-[(2S)-2-hydroxy-propyl]-N-methyl-spiro[1,2-dihydro-indole-3,1′-cyclopropane]-6-carboxylic acid amide] | < 0.1
7 | CC(CO)N(C)C(=O)c1ccc2c(c1)N(c1ncc(-c3ccccc3F)cn1)CC21CC1 (stereo not shown) [Compound 285, 1-[5-(2-Fluorophenyl)-pyrimidin-2-yl]-N-(2-hydroxy-1-methyl-ethyl)-N-methyl-spiro[1,2-dihydro-indole-3,1′-cyclopropane]-6-carboxylic acid amide] | < 0.1
8 | Cc1cccc(-c2cnc(N3CC4(CC4)c4ccc(C(=O)N5CCNC(=O)C5)cc43)nc2)n1 [Compound 286, 4-[1-[5-(6-Methyl-pyridin-2-yl)-pyrimidin-2-yl]-spiro[1,2-dihydro-indole-3,1′-cyclopropane]-6-carbonyl]-piperazin-2-one] | < 0.1
9 | CN(CCO)C(=O)c1ccc2c(c1)N(c1ncc(-c3cc([S+](C)[O-])ccc3F)cn1)CC21CC1 (stereo not shown) [Compound 287, 1-[5-[2-Fluoro-5-(methylsulfinyl)-phenyl]-pyrimidin-2-yl]-N-(2-hydroxy-ethyl)-N-methyl-spiro[1,2-dihydro-indole-3,1′-cyclopropane]-6-carboxylic acid amide] | < 0.1
10 | CN(CCO)C(=O)c1ccc2c(c1)N(c1ncc(-c3cc([S+](C)[O-])ccn3)cn1)CC21CC1 (stereo not shown) [Compound 288, N-(2-Hydroxy-ethyl)-N-methyl-1-[5-[4-(methylsulfinyl)-pyridin-2-yl]-pyrimidin-2-yl]-spiro[1,2-dihydro-indole-3,1′-cyclopropane]-6-carboxylic acid amide] | < 0.1
11 | CN(CCO)C(=O)c1ccc2c(c1)N(c1ncc(-c3cc(S(C)(=O)=O)ccn3)cn1)CC21CC1 [Compound 289, N-(2-Hydroxy-ethyl)-N-methyl-1-[5-(4-methylsulfonyl-pyridin-2-yl)-pyrimidin-2-yl]-spiro[1,2-dihydro-indole-3,1′-cyclopropane]-6-carboxylic acid amide] | < 0.1
12 | Cc1cnnc(-c2cnc(N3CC4(CC4)c4ccc(C(=O)N(C)CCO)cc43)nc2)c1 [Compound 290, N-(2-hydroxyethyl)-N-methyl-1′-(5-(5-methylpyridazin-3-yl)pyrimidin-2-yl)spiro[cyclopropane-1,3′-indoline]-6′-carboxamide] | < 0.1
13 | O=C(c1ccc2c(c1)N(c1ncc(-c3cc(N4CCCC4)ccn3)cn1)CC21CC1)N1CCOCC1 [Compound 291, Morpholin-4-yl-[1-[5-(4-pyrrolidin1--yl-pyridin-2-yl)-pyrimidin-2-yl]-spiro[1,2-dihydro-indole-3,1′-cyclopropane]-6-yl]-methanone] | < 0.1
14 | CCNc1ccnc(-c2cnc(N3CC4(CC4)c4ccc(C(=O)N5CCOCC5)cc43)nc2)c1 [Compound 292, [1-[5-(4-Ethylamino-pyridin-2-yl)-pyrimidin-2-yl]-spiro[1,2-dihydro-indole-3,1′-cyclopropane]-6-yl]-morpholin-4-yl-methanone] | < 0.1
15 | CC(O)c1ccnc(-c2cnc(N3CC4(CC4)c4ccc(C(=O)N5CCOCC5)cc43)nc2)c1 (stereo not shown) [Compound 293, [1-[5-[4-(1-Hydroxy-ethyl)-pyridin-2-yl]-pyrimidin-2-yl]-spiro[1,2-dihydro-indole-3,1′-cyclopropane]-6-yl]-morpholin-4-yl-methanone] | < 0.1
16 | CC(C)(O)c1ccnc(-c2cnc(N3CC4(CC4)c4ccc(C(=O)N5CCOCC5)cc43)nc2)c1 [Compound 294, [1-[5-[4-(1-Hydroxy-1-methyl-ethyl)-pyridin-2-yl]-pyrimidin-2-yl]-spiro[1,2-dihydro-indole-3,1′-cyclopropane]-6-yl]-morpholin-4-yl-methanone] | < 0.1
17 | O=C(c1ccc2c(c1)N(c1ncc(-c3cc(NCC4CC4)ccn3)cn1)CC21CC1)N1CCOCC1 [Compound 295, [1-[5-[4-(Cyclopropyl-methylamino)-pyridin-2-yl]-pyrimidin-2-yl]-spiro[1,2-dihydro-indole-3,1′-cyclopropane]-6-yl]-morpholin-4-yl-methanone] | < 0.1
18 | CN(CCO)C(=O)c1ccc2c(c1)N(c1ncc(-c3cc(S(C)(=O)=O)ccc3F)cn1)CC21CC1 [Compound 296, 1-[5-(2-Fluoro-5-methylsulfonyl-phenyl)-pyrimidin-2-yl]-N-(2-hydroxy-ethyl)-N-methyl-spiro[1,2-dihydro-indole-3,1′-cyclopropane]-6-carboxylic acid amide] | < 0.1
19 | Cc1ccnc(-c2cnc(N3CC4(CC4)c4ccc(C(=O)N5C[C@@H]6C[C@H]5CN6)cc43)nc2)c1 [Compound 297, [(1S,4S)-2,5-Diazabicyclo[2.2.1]heptan-2-yl]-[1-[5-(4-methyl-pyridin-2-yl)-pyrimidin-2-yl]-spiro[1,2-dihydro-indole-3,1′-cyclopropane]-6-yl]-methanone] | < 0.1
20 | CCc1ccnc(-c2cnc(N3CC4(CC4)c4ccc(C(=O)N5C[C@@H]6C[C@H]5CN6)cc43)nc2)c1 [Compound 298, [(1S,4S)-2,5-Diazabicyclo[2.2.1]heptan-2-yl]-[1-[5-(4-ethyl-pyridin-2-yl)-pyrimidin-2-yl]-spiro[1,2-dihydro-indole-3,1′-cyclopropane]-6-yl]-methanone] | < 0.1
21 | Cc1ccnc(-c2cnc(N3CC4(CC4)c4ccc(C(=O)N(C)C)cc43)nc2)c1 [Compound 299, N,N-Dimethyl-1-[5-(4-methyl-pyridin-2-yl)-pyrimidin-2-yl]-spiro[1,2-dihydro-indole-3,1′-cyclopropane]-6-carboxylic acid amide] | < 0.1
22 | Cc1ccnc(-c2cnc(N3CC4(CC4)c4ccc(C(=O)N(C)CC(N)=O)cc43)nc2)c1 [Compound 300, N-(Carbamoyl-methyl)-N-methyl-1-[5-(4-methyl-pyridin-2-yl)-pyrimidin-2-yl]-spiro[1,2-dihydro-indole-3,1′-cyclopropane]-6-carboxylic acid amide] | < 0.1
23 | Nc1ccnc(-c2cnc(N3CC4(CC4)c4ccc(C(=O)N5C[C@@H]6C[C@H]5CN6)cc43)nc2)c1 [Compound 301, [1-[5-(4-Amino-pyridin-2-yl)-pyrimidin-2-yl]-spiro[1,2-dihydro-indole-3,1′-cyclopropane]-6-yl]-[(1S,4S)-2,5-diazabicyclo[2.2.1]heptan-2-yl]-methanone] | < 0.1
24 | CN(C)c1ccnc(-c2cnc(N3CC4(CC4)c4ccc(C(=O)N5C[C@@H]6C[C@H]5CN6)cc43)nc2)c1 [Compound 302, [(1S,4S)-2,5-Diazabicyclo[2.2.1]heptan-2-yl]-[1-[5-(4-dimethylamino-pyridin-2-yl)-pyrimidin-2-yl]-spiro[1,2-dihydro-indole-3,1′-cyclopropane]-6-yl]-methanone] | < 0.1
25 | Cc1cccc(-c2cnc(N3CC4(CC4)c4ccc(C(=O)N(C)C)cc43)nc2)n1 [Compound 303, N,N-Dimethyl-1-[5-(6-methyl-pyridin-2-yl)-pyrimidin-2-yl]-spiro[1,2-dihydro-indole-3,1′-cyclopropane]-6-carboxylic acid amide] | < 0.1
26 | O=C(c1ccc2c(c1)N(c1ncc(-c3ccccn3)cn1)CC21CC1)N1C[C@@H]2C[C@H]1CN2 [Compound 304, [(1S,4S)-2,5-Diazabicyclo[2.2.1]heptan-2-yl]-[1-(5-pyridin-2-yl-pyrimidin-2-yl)-spiro[1,2-dihydro-indole-3,1′-cyclopropane]-6-yl]-methanone] | < 0.1
27 | Cc1cccc(-c2cnc(N3CC4(CC4)c4ccc(C(=O)N5C[C@@H]6C[C@H]5CN6)cc43)nc2)n1 [Compound 305, [(1S,4S)-2,5-Diazabicyclo[2.2.1]heptan-2-yl]-[1-[5-(6-methyl-pyridin-2-yl)-pyrimidin-2-yl]-spiro[1,2-dihydro-indole-3,1′-cyclopropane]-6-yl]-methanone] | < 0.1
28 | CN(C)C(=O)c1ccc2c(c1)N(c1ncc(-c3ccccn3)cn1)CC21CC1 [Compound 306, N,N-Dimethyl-1-(5-pyridin-2-yl-pyrimidin-2-yl)-spiro[1,2-dihydro-indole-3,1′-cyclopropane]-6-carboxylic acid amide] | < 0.1
